The values that follow come from patent publication US20090264345A1, “MACROCYCLIC PEPTIDES AND METHODS FOR MAKING AND USING THEM” (priority 2006, published 2009).

Like-named read-outs stand apart in the source and are kept apart here.

For data set [1], the system named is virus-encoded topoisomerase I. The note with it: poxvirus MCV; Hwang et al. 1999; cited from earlier work.
The conditions of data set [2]: amide bond, 15-membered ring, DEPBT/HATU/TBTU/DIEA, THF/MeCN/CH2Cl2 2:2:1, 7.0 mM, 2 steps.
For the next data set, the system named is MSS colon cancers. The settings on record: drug of choice for MSS colon cancers; cited from earlier work.

Turning to Sansalvamide A [San A], the “inhibition of topoisomerase I” value in data set [1] was “inhibitor”. In turn, `CC(C)C[C@@H]1NC(=O)[C@H](C(C)C)NC(=O)[C@H](CC(C)C)N(C)C(=O)[C@@H](CC(C)C)NC(=O)[C@H](Cc2ccccc2)NC1=O` [cyclo[-Phe-Leu-Val-Xaa-Xaa-] (Xaa-4 NMeLeu, Xaa-5 DLeu)] returned a ring closure, isolated yield in data set [2] (from H-dLeu-MeLeu-Val-Leu-Phe-OH?) of 40%. `CC(C)C[C@@H]1NC(=O)[C@H](Cc2ccccc2)NC(=O)[C@@H](CC(C)C)N(C)C(=O)[C@H](C(C)C)NC(=O)[C@H](CC(C)C)NC1=O` [cyclo[-Phe-Xaa-Val-Leu-Leu-] (Xaa-2 DNMeLeu)] returned a ring closure, isolated yield in data set [2] (from H-Leu-Leu-Val-dMeLeu-Phe-OH?) of 81%. On to `CC(C)C[C@@H]1NC(=O)[C@H](Cc2ccccc2)NC(=O)[C@H](CC(C)C)NC(=O)[C@H](C(C)C)NC(=O)[C@@H](CC(C)C)NC1=O` [cyclo[-Phe-Leu-Val-Xaa-Leu-] (Xaa-4 DLeu)], for which, in data set [2] (from H-Leu-dLeu-Val-Leu-Phe-OH?), the ring closure, isolated yield was determined as 53%. The term IC50 denotes the midpoint of a concentration-inhibition curve. Turning to `O=c1[nH]cc(F)c(=O)[nH]1` [5-fluorouracil], in the data set on MSS colon cancers, the IC50 is 5 µM. Compound `CC(C)C[C@@H]1NC(=O)[C@H](Cc2ccccc2)NC(=O)[C@@H](CC(C)C)NC(=O)[C@H](C(C)C)NC(=O)[C@H](CC(C)C)NC1=O` [cyclo[-Phe-Xaa-Val-Leu-Leu-] (Xaa-2 DLeu)] came in with a ring closure, isolated yield in data set [2] (from H-Leu-Leu-Val-dLeu-Phe-OH?) of 85%. Regarding `CC(C)C[C@@H]1NC(=O)[C@H](C(C)C)NC(=O)[C@@H](CC(C)C)NC(=O)[C@@H](CC(C)C)NC(=O)[C@H](Cc2ccccc2)NC1=O` [cyclo[-Phe-Leu-Val-Xaa-Xaa-] (Xaa-4 DLeu, Xaa-5 DLeu)], the ring closure, isolated yield in data set [2] (from H-dLeu-dLeu-Val-Leu-Phe-OH?) came to 35%. Consider `CC(C)C[C@@H]1NC(=O)[C@H](CC(C)C)NC(=O)[C@@H](Cc2ccccc2)NC(=O)[C@H](CC(C)C)NC(=O)[C@H](C(C)C)NC1=O` [cyclo[-Xaa-Leu-Val-Leu-Leu-] (Xaa-1 DPhe)], for which the ring closure, isolated yield in data set [2] (from H-Leu-Leu-Val-Leu-dPhe-OH?) amounted to 39%. Compound `CC(C)C[C@@H]1NC(=O)[C@H](CC(C)C)NC(=O)[C@@H](Cc2ccccc2)NC(=O)[C@@H](CC(C)C)NC(=O)[C@H](C(C)C)NC1=O` [cyclo[-Xaa-Xaa-Val-Leu-Leu-] (Xaa-1 DPhe, Xaa-2 DLeu)] yielded a ring closure, isolated yield in data set [2] (from H-Leu-Leu-Val-dLeu-dPhe-OH?) of 37%. As for `CC(C)C[C@@H]1NC(=O)[C@H](Cc2ccccc2)NC(=O)[C@H](CC(C)C)NC(=O)[C@H](C(C)C)NC(=O)[C@H](CC(C)C)NC1=O` [cyclo[-Phe-Leu-Val-Leu-Leu-]], in data set [2] (from H-Leu-Leu-Val-Leu-Phe-OH?), the ring closure, isolated yield is 65%. With `CC(C)C[C@@H]1NC(=O)[C@H](Cc2ccccc2)NC(=O)[C@H](CC(C)C)NC(=O)[C@@H](C(C)C)NC(=O)[C@H](CC(C)C)NC1=O` [cyclo[-Phe-Leu-Xaa-Leu-Leu-] (Xaa-3 DVal)], the ring closure, isolated yield in data set [2] (from H-Leu-Leu-dVal-Leu-Phe-OH?) came to 65%.
